Experimental data reported in paper PMC11469493, “Luteolin target HSPB1 regulates endothelial cell ferroptosis to protect against radiation vascular injury” (PLOS ONE, 2024).

Experiments:
HSPB1 [1] = target: T1, HSPB1 (Homo sapiens, UniProt P04792); assay: SPR (Reichert 4SPR, immobilised HSPB1); format: binding; set-up: protein immobilised by EDC/NHS on dextran SPR chip; settings: read-out: affinity
HSPB1 [2] = target: T1, HSPB1; assay: DARTS with Western blot (protection from protease); format: biochemical; set-up: endogenous protein in lysate, detected by Western blot after protease digestion (DARTS); settings: cell lysate, room temperature, 20 min with luteolin, protease digestion 15 min

T1 sequence (P04792 whole entry): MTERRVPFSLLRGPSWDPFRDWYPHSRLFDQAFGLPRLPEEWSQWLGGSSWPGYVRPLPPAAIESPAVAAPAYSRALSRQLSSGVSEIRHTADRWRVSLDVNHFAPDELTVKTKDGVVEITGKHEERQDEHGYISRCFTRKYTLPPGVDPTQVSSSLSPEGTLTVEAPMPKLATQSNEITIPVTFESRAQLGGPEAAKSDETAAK

O=c1cc(-c2ccc(O)c(O)c2)oc2cc(O)cc(O)c12 [luteolin]
Kd (HSPB1 [1]): 23.7 µM
DARTS with Western blot (protection from protease) (HSPB1 [2]): addition of luteolin under the same protease concentration conditions reduced the hydrolysis of HSPB1
